From patent US20100056508A1, “AMINE DERIVATIVES AND THEIR USE IN BETA-2-ADRENORECEPTOR MEDIATED DISEASES” (ASTRAZENECA AB, priority 2006, published 2010) come the findings set out here.

In assay [1] the target is T1, recombinant human α1D receptor (Homo sapiens, UniProt P25100).
T1 construct: expressed in transfected cells; host or cells: human embryonic kidney 293 cells (HEK93 [sic]), membranes
T1 sequence (P25100 1-572): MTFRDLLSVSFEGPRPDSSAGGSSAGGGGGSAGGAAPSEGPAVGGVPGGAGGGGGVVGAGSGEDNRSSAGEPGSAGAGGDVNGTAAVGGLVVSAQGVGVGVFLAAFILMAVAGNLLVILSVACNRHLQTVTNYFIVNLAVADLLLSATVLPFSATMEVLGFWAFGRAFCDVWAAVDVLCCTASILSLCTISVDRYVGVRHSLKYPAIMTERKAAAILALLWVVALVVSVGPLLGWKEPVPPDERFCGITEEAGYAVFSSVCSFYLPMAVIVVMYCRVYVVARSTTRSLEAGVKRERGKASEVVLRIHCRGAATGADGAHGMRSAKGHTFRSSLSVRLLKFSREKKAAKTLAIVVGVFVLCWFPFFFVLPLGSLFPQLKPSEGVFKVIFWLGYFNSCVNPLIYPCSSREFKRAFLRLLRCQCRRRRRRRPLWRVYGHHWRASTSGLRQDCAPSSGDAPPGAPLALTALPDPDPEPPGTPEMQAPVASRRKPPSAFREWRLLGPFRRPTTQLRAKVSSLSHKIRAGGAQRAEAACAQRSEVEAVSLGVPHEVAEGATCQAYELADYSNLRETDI
Put plainly: Adrenergic α1D selectivity assay, [3H]-prazosin binding to membranes. To be noted: inhibition of [3H]-prazosin binding, HEK cell membranes, read-out: α1 bind pIC50 (converted). On the procedure:
Membranes were prepared from human embryonic kidney 293 ([…]) cells expressing recombinant human α1D receptor. These were diluted in Assay Buffer (50 mM HEPES, 1 mM EDTA, pH 7.4) to provide a final concentration of membranes that gave a clear window between maximum and minimum specific binding.
(§1) Assays were performed in U-bottomed 96-well polypropylene plates. 10 μL [^3H]-prazosin (0.3 nM final concentration) and 10 mL of test compound (10× final concentration) were added to each test well. For each assay plate 8 replicates were obtained for [^3H]-prazosin binding in the presence of 10 μL vehicle (10% (v/v) DMSO in Assay Buffer; defining maximum binding) or 10 μL BMY7378 (10 μM final concentration; defining non-specific binding (NSB)). Membranes were then added to achieve a final volume of 100 μL. The plates were incubated for 2 hours at room temperature and then filtered onto PEI coated GF/B filter plates, pre-soaked for 1 hour in Assay Buffer, using a 96-well plate Tomtec cell harvester. Five washes with 250 μL wash buffer (50 mM HEPES, 1 mM EDTA, pH 7.4) were performed at 4° C. to remove unbound radioactivity. The plates were dried then sealed from underneath using Packard plate sealers and MicroScint-O (50 μL) was added to each well. The plates were sealed (TopSeal A) and filter-bound radioactivity was measured with a scintillation counter (TopCount, Packard BioScience) using a 3-minute counting protocol.
Total specific binding (B0) was determined by subtracting the mean NSB from the mean maximum binding. NSB values were also subtracted from values from all other wells. […] Data was fitted to a four parameter logistic equation to determine the compound potency, which was expressed as pIC50 (negative log molar concentration inducing 50% inhibition of [^3H]-prazosin binding).

A further assay concerns the target T2, Adrenergic β2 (Homo sapiens, UniProt P07550).
T2 construct: Adherent H292 cells were removed from tissue culture flasks; endogenous in cells; host or cells: H292 cells
Kind of assay: Adrenergic β2 mediated cAMP production in H292 cells (AlphaScreen cAMP detection). Format: cell-based. To be noted: for β2 Int Act: Intrinsic Activity as a fraction relative to the maximum activity determined for formoterol; for EC50: cAMP production, 60 minutes at room temperature, 300 μM rolipram, read-out: β2 pEC50 (converted). The arrangement: key to β2 Int Act: fraction of formoterol maximum activity (formoterol = 1). On the procedure: Adrenergic β2 Mediated cAMP Production
H292 cells were grown in 225 cm2 flasks incubator at 37° C., 5% CO2 in RPMI medium containing, 10% (v/v) FBS (foetal bovine serum) and 2 mM L-glutamine.
Adherent H292 cells were removed from tissue culture flasks by treatment with Accutase™ cell detachment solution for 15 minutes. Flasks were incubated for 15 minutes in a humidified incubator at 37° C., 5% CO2. Detached cells were re-suspended in RPMI media (containing 10% (v/v) FBS and 2 mM L-glutamine) at 1×10^6 cells per mL. 10000 cells in 100 μL were added to each well of a tissue-culture-treated 96-well plate and the cells incubated overnight in a humidified incubator at 37° C., 5% CO2. The culture media was removed and cells were washed twice with 100 μL assay buffer and replaced with 50 μL assay buffer (HBSS solution containing 10 mM HEPES pH7.4 and 5 mM glucose). Cells were rested at room temperature for 20 minutes after which time 25 μL of rolipram (1.2 mM made up in assay buffer containing 2.4% (v/v) dimethylsulphoxide) was added. Cells were incubated with rolipram for 10 minutes after which time test compounds were added and the cells were incubated for 60 minutes at room temperature. The final rolipram concentration in the assay was 300 μM and final vehicle concentration was 1.6% (v/v) dimethylsulphoxide. The reaction was stopped by removing supernatants, washing once with 100 μL assay buffer and replacing with 50 μL lysis buffer. The cell monolayer was frozen at −80° C. for 30 minutes (or overnight).
AlphaScreen™ cAMP Detection
The concentration of cAMP (cyclic adenosine monophosphate) in the cell lysate was determined using AlphaScreen™ methodology. The frozen cell plate was thawed for 20 minutes on a plate shaker then 10 μL of the cell lysate was transferred to a 96-well white plate. 40 μL of mixed AlphaScreen™ detection beads pre-incubated with biotinylated cAMP, was added to each well and the plate incubated at room temperature for 10 hours in the dark. The AlphaScreen™ signal was measured using an EnVision spectrophotometer (Perkin-Elmer Inc.) with the recommended manufacturer's settings. cAMP concentrations were determined by reference to a calibration curve determined in the same experiment using standard cAMP concentrations. Concentration response curves for agonists were constructed and data was fitted to a four parameter logistic equation to determine both the pEC50 and Intrinsic Activity. Intrinsic Activity was expressed as a fraction relative to the maximum activity determined for formoterol in each experiment.
For orientation: cAMP levels reflect the balance of adenylyl cyclase and phosphodiesterase activity.

Assay [2] has as its target T3, recombinant human adrenergic beta 1 receptors (Homo sapiens, UniProt P08588).
T3 construct: purchased Euroscreen
Put plainly: Adrenergic β1 selectivity assay, [125I]-Iodocyanopindolol binding to membranes. The following applies: inhibition of [125I]-Iodocyanopindolol binding, read-out: β1 bind pIC50 (converted). The procedure:
Membranes containing recombinant human adrenergic beta 1 receptors were obtained from Euroscreen. These were diluted in Assay Buffer (50 mM HEPES, 1 mM EDTA, 120 mM NaCl, 0.1% gelatin, pH 7.4) to provide a final concentration of membranes that gave a clear window between maximum and minimum specific binding.
as §1, with “[^125I]-Iodocyanopindolol (0.036” for “[^3H]-prazosin (0.3”, “μL” for “mL”, “[^125I]-Iodocyanopindolol” for “[^3H]-prazosin”, “Propranolol” for “BMY7378”, “EDTA, 120 mM NaCl,” for “EDTA,”
Total specific binding (B0) was determined by subtracting the mean NSB from the mean maximum binding. NSB values were also subtracted from values from all other wells. […] Data was fitted to a four parameter logistic equation to determine the compound potency, which was expressed as pIC50 (negative log molar concentration inducing 50% inhibition of [^125I]-Iodocyanopindolol binding).

For assay [3], the target named is T4, recombinant human Dopamine Subtype D2s receptors (Homo sapiens, UniProt P14416).
T4 construct: purchased Perkin Elmer
Kind of assay: Dopamine D2 selectivity assay, [3H]-spiperone binding to membranes. The following applies: inhibition of [3H]-spiperone binding, read-out: D2 bind pIC50 (converted). On the procedure:
Membranes containing recombinant human Dopamine Subtype D2s receptors were obtained from Perkin Elmer. These were diluted in Assay Buffer (50 mM HEPES, 1 mM EDTA, 120 mM NaCl, 0.1% gelatin, pH 7.4) to provide a final concentration of membranes that gave a clear window between maximum and minimum specific binding.
Assays were performed in U-bottomed 96-well polypropylene plates. 30 μL [^3H]-spiperone (0.16 nM final concentration) and 30 μL of test compound (10× final concentration) were added to each test well. For each assay plate 8 replicates were obtained for [^3H]-spiperone binding in the presence of 30 μL vehicle (10% (v/v) DMSO in Assay Buffer; defining maximum binding) or 30 μL Haloperidol (10 μM final concentration; defining non-specific binding (NSB)). Membranes were then added to achieve a final volume of 300 μL. The plates were incubated for 2 hours at room temperature and then filtered onto PEI coated GF/B filter plates, pre-soaked for 1 hour in Assay Buffer, using a 96-well plate Tomtec cell harvester. Five washes with 250 μL wash buffer (50 mM HEPES, 1 mM EDTA, 120 mM NaCl, pH 7.4) were performed at 4° C. to remove unbound radioactivity. The plates were dried then sealed from underneath using Packard plate sealers and MicroScint-0 (50 μL) was added to each well. The plates were sealed (TopSeal A) and filter-bound radioactivity was measured with a scintillation counter (TopCount, Packard BioScience) using a 3-minute counting protocol.
Total specific binding (B0) was determined by subtracting the mean NSB from the mean maximum binding. NSB values were also subtracted from values from all other wells. […] Data was fitted to a four parameter logistic equation to determine the compound potency, which was expressed as pIC50 (negative log molar concentration inducing 50% inhibition of [^3H]-spiperone binding).

The structures appear in SMILES notation.

T4 sequence (P14416 1-414 isoform P14416-2): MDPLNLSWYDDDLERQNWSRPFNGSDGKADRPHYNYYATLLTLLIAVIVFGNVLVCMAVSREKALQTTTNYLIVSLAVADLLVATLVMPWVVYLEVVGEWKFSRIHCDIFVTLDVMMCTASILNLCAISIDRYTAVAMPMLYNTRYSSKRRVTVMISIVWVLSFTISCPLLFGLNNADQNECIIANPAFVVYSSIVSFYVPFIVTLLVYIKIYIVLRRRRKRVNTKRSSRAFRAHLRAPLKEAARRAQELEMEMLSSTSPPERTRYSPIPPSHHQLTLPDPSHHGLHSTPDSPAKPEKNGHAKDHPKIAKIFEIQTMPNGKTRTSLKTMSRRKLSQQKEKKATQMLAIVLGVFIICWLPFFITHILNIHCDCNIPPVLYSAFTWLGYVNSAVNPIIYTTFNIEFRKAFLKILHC
T3 sequence (P08588 whole entry): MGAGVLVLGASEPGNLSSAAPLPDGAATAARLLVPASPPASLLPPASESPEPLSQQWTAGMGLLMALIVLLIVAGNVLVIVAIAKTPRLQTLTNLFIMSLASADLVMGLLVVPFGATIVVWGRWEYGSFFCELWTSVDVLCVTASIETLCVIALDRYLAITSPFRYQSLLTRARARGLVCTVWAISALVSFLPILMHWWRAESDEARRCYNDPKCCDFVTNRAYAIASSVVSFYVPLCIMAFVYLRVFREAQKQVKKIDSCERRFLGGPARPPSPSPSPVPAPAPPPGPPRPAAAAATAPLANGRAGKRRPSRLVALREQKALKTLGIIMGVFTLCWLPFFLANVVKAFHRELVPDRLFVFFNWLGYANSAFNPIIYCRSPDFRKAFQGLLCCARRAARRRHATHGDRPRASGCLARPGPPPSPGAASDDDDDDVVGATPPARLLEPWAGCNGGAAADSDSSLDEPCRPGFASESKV
T2 sequence (P07550 whole entry): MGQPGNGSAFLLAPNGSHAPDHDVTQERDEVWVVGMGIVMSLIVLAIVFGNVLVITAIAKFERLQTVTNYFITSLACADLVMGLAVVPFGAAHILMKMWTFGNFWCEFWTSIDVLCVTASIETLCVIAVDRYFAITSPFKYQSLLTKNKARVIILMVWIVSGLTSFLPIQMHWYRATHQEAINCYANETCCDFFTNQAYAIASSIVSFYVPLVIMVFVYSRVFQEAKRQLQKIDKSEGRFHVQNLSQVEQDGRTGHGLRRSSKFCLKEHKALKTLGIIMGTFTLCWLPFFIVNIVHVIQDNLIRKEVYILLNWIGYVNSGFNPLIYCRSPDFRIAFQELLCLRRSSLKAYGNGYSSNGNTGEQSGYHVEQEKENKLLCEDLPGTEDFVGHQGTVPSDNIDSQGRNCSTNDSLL

Consider `O=C(CCNCCc1cc(F)cc(F)c1)N(CCNCCc1ccc(O)c2[nH]c(=O)ccc12)C1CCCCCC1` [Example 10, N-Cycloheptyl-3-(3,5-difluorophenethylamino)-N-(2-(2-(8-hydroxy-2-oxo-1,2-dihydroquinolin-5-yl)ethylamino)ethyl)propanamide bis(trifluoroacetate)], for which the results for the IC50 in assay [1] and in assay [2] were 316 nM and more than 7940 nM, respectively. Moreover, the “β2 Int Act” value on Adrenergic β2 is on record as 0.85. The EC50 at Adrenergic β2 is 20 nM.

`O=C(CCNCCc1ccc(F)c(F)c1)N(CCNCCc1ccc(O)c2[nH]c(=O)ccc12)C1CCCCC1` [Example 16, N-Cyclohexyl-3-(3,4-difluorophenethylamino)-N-(2-(2-(8-hydroxy-2-oxo-1,2-dihydroquinolin-5-yl)ethylamino)ethyl)propanamide bis(trifluoroacetate)]: the IC50 in assay [1] is 316 nM; in assay [2] it was more than 10000 nM. The “β2 Int Act” value on Adrenergic β2 is 0.85. The EC50 at Adrenergic β2 was 20 nM.

Take `O=C1COc2c(CCNCCN(C(=O)CCNCCc3ccccc3Cl)C3CCCCC3)ccc(O)c2N1` [Example 28, 3-(2-Chlorophenethylamino)-N-cyclohexyl-N-(2-(2-(5-hydroxy-3-oxo-3,4-dihydro-2H-benzo[b][1,4]oxazin-8-yl)ethylamino)ethyl)propanamide bis(trifluoroacetate)]: the IC50 in assay [1] is 39.8 nM. At Adrenergic β2, the “β2 Int Act” value was 0.86 and the EC50 was 2.51 nM. Besides, in assay [3], the IC50 is 79.4 nM.

Take `Cc1ccc(F)c(CCNCCC(=O)N(CCNCCc2ccc(O)c3c2OCC(=O)N3)C2CCCCC2)c1` [Example 33, N-Cyclohexyl-3-(2-fluoro-5-methylphenethylamino)-N-(2-(2-(5-hydroxy-3-oxo-3,4-dihydro-2H-benzo[b][1,4]oxazin-8-yl)ethylamino)ethyl)propanamide bis(trifluoroacetate)]: the IC50 in assay [1] is 79.4 nM. Further, at Adrenergic β2, the “β2 Int Act” value was determined as 0.9 and the EC50 was 1.58 nM. In addition, the IC50 in assay [2] is 2510 nM.

Turning to `Cl.O=C(CCOCCc1ccc(F)cc1)N(CCNCCc1ccc(O)c2[nH]c(=O)ccc12)C1CCCCC1` [Example 71, N-Cyclohexyl-3-(4-fluorophenethoxy)-N-(2-(2-(8-hydroxy-2-oxo-1,2-dihydroquinolin-5-yl)ethylamino)ethyl)propanamide hydrochloride], in assay [1], the IC50 was 631 nM. Further, on Adrenergic β2, the “β2 Int Act” value was 0.85 and the EC50 was 10 nM. In assay [3], the IC50 is 3980 nM.

`Cl.O=C(CCOCCc1cccc(F)c1)N(CCNCCc1ccc(O)c2[nH]c(=O)ccc12)C1CCCCC1` [Example 72, N-Cyclohexyl-3-(3-fluorophenethoxy)-N-(2-(2-(8-hydroxy-2-oxo-1,2-dihydroquinolin-5-yl)ethylamino)ethyl)propanamide hydrochloride]: the IC50 in assay [1] was 501 nM; in assay [3], 3980 nM. In addition, the “β2 Int Act” value at Adrenergic β2 is 0.92. In addition, the EC50 on Adrenergic β2 is 5.01 nM.

For the compound `Cl.O=C(CCOCCc1ccccc1F)N(CCNCCc1ccc(O)c2[nH]c(=O)ccc12)C1CCCCC1` [Example 73, N-Cyclohexyl-3-(2-fluorophenethoxy)-N-(2-(2-(8-hydroxy-2-oxo-1,2-dihydroquinolin-5-yl)ethylamino)ethyl)propanamide hydrochloride], the IC50 in assay [1] was 631 nM. Besides, at Adrenergic β2, the “β2 Int Act” value is reported as 0.94 and the EC50 is 3.98 nM. Besides, the IC50 in assay [3] was 5010 nM.
